Among the data in patent US9512107B2, “Therapeutically active compositions and their methods of use” (Agios Pharmaceuticals, Inc., priority 2012, dated 2016) are IC50 values, retold here.

Substitutions are numbered along the chain they refer to. Like-named read-outs stand apart in the source and are kept apart here. A value given as a limit tells only on which side of the number the result lay.

One assay deals with T1, IDH2 R172K (Homo sapiens, UniProt P48735, R172K).
T1 sequence (P48735 40-452 R172K): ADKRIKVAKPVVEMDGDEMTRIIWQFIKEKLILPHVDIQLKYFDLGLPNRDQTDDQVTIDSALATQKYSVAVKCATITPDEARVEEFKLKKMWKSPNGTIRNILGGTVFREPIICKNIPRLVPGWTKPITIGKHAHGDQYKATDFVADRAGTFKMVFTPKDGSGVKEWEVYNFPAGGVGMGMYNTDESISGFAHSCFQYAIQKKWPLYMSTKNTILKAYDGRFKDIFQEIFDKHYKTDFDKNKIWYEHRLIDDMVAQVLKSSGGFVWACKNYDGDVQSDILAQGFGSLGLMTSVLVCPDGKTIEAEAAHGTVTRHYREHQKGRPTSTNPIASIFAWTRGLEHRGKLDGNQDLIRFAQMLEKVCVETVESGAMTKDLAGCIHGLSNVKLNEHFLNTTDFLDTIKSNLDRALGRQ
As to the kind of experiment: IDH2 R172K enzymatic assay (NADPH cofactor depletion, diaphorase/resazurin readout). The format is biochemical. Particulars: read-out: Enz R172K. In outline: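 Cofactor depletion format: enzyme + compound 1 h RT; add substrate mix (50 μM NADPH, 6.3 mM α-KG); react 1 h RT; quench with stop mix (36 μg/ml diaphorase, 60 μM resazurin); read resorufin fluorescence as residual NADPH.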
(In general: Resazurin is reduced to fluorescent resorufin, in cell work by metabolically active cells.)

In assay [1] the test system is U87MG pLVX-IDH2 R140Q-neo cells. As to the kind of experiment: U87MG pLVX-IDH2 R140Q-neo cell based assay, 2-HG in media by LC-MS at 48 hours. The method, boiled down: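 2-HG secreted into the medium was measured by LC-MS after 48 h of compound treatment (0.2% DMSO final) of U87MG pLVX-IDH2 R140Q-neo cells in DMEM/10% FBS. The same wells were assayed at 72 h by CellTiter-Glo luminescence for effects on growth.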

The next assay has as its target T2, IDH2 R140Q (Homo sapiens, UniProt P48735, R140Q).
T2 sequence (P48735 40-452 R140Q): T1 sequence (P48735 40-452 R172K) with R101Q, K133R
The assay can be described thus: IDH2 R140Q enzymatic assay (cofactor depletion, similar format). It counts as biochemical. Particulars: read-out: Enz R140Q.

For `CC(C)Nc1nc(Nc2ccnc(C(F)F)c2)nc(-c2cccc(C(F)(F)F)n2)n1` [Compound 551, N-(2-Difluoromethyl-pyridin-4-yl)-N′-isopropyl-6-(6-trifluoromethyl-pyridin-2-yl)-[1,3,5]triazine-2,4-diamine], the IC50 at IDH2 R172K is under 100 nM; in assay [1] (Homo sapiens, U-87 MG), under 100 nM; on IDH2 R140Q, 100 to 1000 nM.
Regarding `CC(CO)CNc1nc(Nc2ccnc(C(F)(F)F)c2)nc(-c2cccc(C(F)(F)F)n2)n1` (stereo not drawn) [Compound 552, 2-Methyl-3-[4-(6-trifluoromethyl-pyridin-2-yl)-6-(2-trifluoromethyl-pyridin-4-ylamino)-[1,3,5]triazin-2-ylamino]-propan-1-ol], the IC50 at IDH2 R172K was 100 to 1000 nM; in assay [1] (Homo sapiens, U-87 MG) it was under 100 nM; on IDH2 R140Q, 100 to 1000 nM.
`CCCn1cc(Nc2nc(NC(C)C)nc(-c3cccc(C(F)(F)F)n3)n2)cn1` [Compound 555, N-Isopropyl-N′-(1-propyl-1H-pyrazol-4-yl)-6-(6-trifluoromethyl-pyridin-2-yl)-[1,3,5]triazine-2,4-diamine]: the IC50 at IDH2 R172K is 1000 to 10000 nM; in assay [1] (Homo sapiens, U-87 MG), under 100 nM; at IDH2 R140Q, 100 to 1000 nM.
On the same counts, the results for `FC(F)(F)c1cc(Nc2nc(NC3CC4CCC3O4)nc(-c3cccc(C(F)(F)F)n3)n2)ccn1` (stereo not drawn) [Compound 556, N-(7-Oxa-bicyclo[2.2.1]hept-2-yl)-6-(6-trifluoromethyl-pyridin-2-yl)-N′-(2-trifluoromethyl-pyridin-4-yl)-[1,3,5]triazine-2,4-diamine] are under 100 nM, under 100 nM and 100 to 1000 nM.
On the same counts, the results for `COC1(c2cc(Nc3nc(NC(C)C)nc(-c4cccc(C(F)(F)F)n4)n3)ccn2)CC1` [Compound 559, N-Isopropyl-N′-[2-(1-methoxy-cyclopropyl)-pyridin-4-yl]-6-(6-trifluoromethyl-pyridin-2-yl)-[1,3,5]triazine-2,4-diamine] are under 100 nM, under 100 nM and 100 to 1000 nM.
As to `CC(C)(O)CNc1nc(Nc2cc(F)cc(F)c2)nc(-c2cccc(C(C)(F)F)n2)n1` [Compound 560, 1-[4-[6-(1,1-Difluoro-ethyl)-pyridin-2-yl]-6-(3,5-difluoro-phenylamino)-[1,3,5]triazin-2-ylamino]-2-methyl-propan-2-ol], the IC50 is under 100 nM on IDH2 R172K; under 100 nM in assay [1] (Homo sapiens, U-87 MG); 100 to 1000 nM on IDH2 R140Q.
Take `CC(C)Nc1nc(Nc2cc(Cl)cc(S(C)(=O)=O)c2)nc(-c2cccc(C(F)(F)F)n2)n1` [Compound 561, N-(3-Chloro-5-methanesulfonyl-phenyl)-N′-isopropyl-6-(6-trifluoromethyl-pyridin-2-yl)-[1,3,5]triazine-2,4-diamine]: the IC50 at IDH2 R172K was under 100 nM; in assay [1] (Homo sapiens, U-87 MG), under 100 nM; at IDH2 R140Q, 100 to 1000 nM.
On to `CC(C)(CO)Nc1nc(Nc2ccnc(C(F)(F)F)c2)nc(-c2cccc(C(F)(F)F)n2)n1` [Compound 562, 2-Methyl-2-[4-(6-trifluoromethyl-pyridin-2-yl)-6-(2-trifluoromethyl-pyridin-4-ylamino)-[1,3,5]triazin-2-ylamino]-propan-1-ol], for which the IC50 is under 100 nM on IDH2 R172K; under 100 nM in assay [1] (Homo sapiens, U-87 MG); 100 to 1000 nM on IDH2 R140Q.
Regarding `CC(C)Nc1nc(Nc2ccnc(C3CC3)c2)nc(-c2cccc(C(F)(F)F)n2)n1` [Compound 563, N-(2-Cyclopropyl-pyridin-4-yl)-N′-isopropyl-6-(6-trifluoromethyl-pyridin-2-yl)-[1,3,5]triazine-2,4-diamine], the IC50 is under 100 nM at IDH2 R172K; under 100 nM in assay [1] (Homo sapiens, U-87 MG); 100 to 1000 nM at IDH2 R140Q.
Take `CC(C)(C)Nc1nc(Nc2ccnc(C3CC3)c2)nc(-c2cccc(C(F)(F)F)n2)n1` [Compound 564, N-tert-Butyl-N′-(2-cyclopropyl-pyridin-4-yl)-6-(6-trifluoromethyl-pyridin-2-yl)-[1,3,5]triazine-2,4-diamine]: the IC50 at IDH2 R172K is under 100 nM; in assay [1] (Homo sapiens, U-87 MG), under 100 nM; at IDH2 R140Q, 100 to 1000 nM.
Consider `CC1(Nc2nc(Nc3ccnc(C4CC4)c3)nc(-c3cccc(C(F)(F)F)n3)n2)CC1` [Compound 565, N-(2-Cyclopropyl-pyridin-4-yl)-N′-(1-methyl-cyclopropyl)-6-(6-trifluoromethyl-pyridin-2-yl)-[1,3,5]triazine-2,4-diamine], for which the IC50 at IDH2 R172K was under 100 nM; in assay [1] (Homo sapiens, U-87 MG) it was under 100 nM; on IDH2 R140Q, 100 to 1000 nM.
As to `CC(C)(C)Nc1nc(Nc2ccnc(C(C)(F)F)c2)nc(-c2cccc(C(F)(F)F)n2)n1` [Compound 567, N-tert-Butyl-N′-[2-(1,1-difluoro-ethyl)-pyridin-4-yl]-6-(6-trifluoromethyl-pyridin-2-yl)-[1,3,5]triazine-2,4-diamine], the IC50 was under 100 nM on IDH2 R172K; under 100 nM in assay [1] (Homo sapiens, U-87 MG); 100 to 1000 nM on IDH2 R140Q.
Take `OC1CC1Nc1nc(Nc2ccnc(C(F)(F)F)c2)nc(-c2cccc(C(F)(F)F)n2)n1` (stereo not drawn) [Compound 568, 2-[4-(6-Trifluoromethyl-pyridin-2-yl)-6-(2-trifluoromethyl-pyridin-4-ylamino)-[1,3,5]triazin-2-ylamino]-cyclopropanol]: the IC50 on IDH2 R172K was 100 to 1000 nM; in assay [1] (Homo sapiens, U-87 MG), under 100 nM; on IDH2 R140Q, 100 to 1000 nM.
For `OC1CC1Nc1nc(Nc2ccnc(C(F)(F)F)c2)nc(-c2cccc(C(F)(F)F)n2)n1` (stereo not drawn) [Compound 569, 2-[4-(6-Trifluoromethyl-pyridin-2-yl)-6-(2-trifluoromethyl-pyridin-4-ylamino)-[1,3,5]triazin-2-ylamino]-cyclopropanol], the IC50 (on IDH2 R172K; in assay [1]; at IDH2 R140Q) was 100 to 1000 nM throughout.
As to `CC(C)Nc1nc(Nc2cc(F)cc(S(C)(=O)=O)c2)nc(-c2cccc(C(F)(F)F)n2)n1` [Compound 570, N2-(3-fluoro-5-(methylsulfonyl)phenyl)-N4-isopropyl-6-(6-(trifluoromethyl)pyridin-2-yl)-1,3,5-triazine-2,4-diamine], the IC50 on IDH2 R172K was under 100 nM; in assay [1] (Homo sapiens, U-87 MG), under 100 nM; on IDH2 R140Q, 100 to 1000 nM.
In the case of `CC(C)CNc1nc(Nc2cccc(S(C)(=O)=O)c2)nc(-c2cccc(C(F)(F)F)n2)n1` [Compound 571, N2-isobutyl-N4-(3-(methylsulfonyl)phenyl)-6-(6-(trifluoromethyl)pyridin-2-yl)-1,3,5-triazine-2,4-diamine], the IC50 is 100 to 1000 nM on IDH2 R172K; under 100 nM in assay [1] (Homo sapiens, U-87 MG); 100 to 1000 nM at IDH2 R140Q.
In the case of `CC(C)Nc1nc(Nc2ccnc(Cl)c2)nc(-c2cccc(C(F)(F)F)n2)n1` [Compound 572, N2-(2-chloropyridin-4-yl)-N4-isopropyl-6-(6-(trifluoromethyl)pyridin-2-yl)-1,3,5-triazine-2,4-diamine], the IC50 is 100 to 1000 nM on IDH2 R172K; under 100 nM in assay [1] (Homo sapiens, U-87 MG); 100 to 1000 nM at IDH2 R140Q.
Turning to `CCC(=O)c1cc(Nc2nc(NC(C)C)nc(-c3cccc(C(F)(F)F)n3)n2)ccn1` [Compound 574, 1-{4-[4-Isopropylamino-6-(6-trifluoromethyl-pyridin-2-yl)-[1,3,5]triazin-2-ylamino]-pyridin-2-yl}-propan-1-one], the IC50 on IDH2 R172K is under 100 nM; in assay [1] (Homo sapiens, U-87 MG), under 100 nM; on IDH2 R140Q, 100 to 1000 nM.
Turning to `CC(C)Nc1nc(Nc2ccnc(C(C)(F)F)c2)nc(-c2cccc(C(C)(F)F)n2)n1` [Compound 576, 6-[6-(1,1-Difluoro-ethyl)-pyridin-2-yl]-N-[2-(1,1-difluoro-ethyl)-pyridin-4-yl]-N′-isopropyl-[1,3,5]triazine-2,4-diamine], the IC50 was 100 to 1000 nM on IDH2 R172K; under 100 nM in assay [1] (Homo sapiens, U-87 MG); 100 to 1000 nM on IDH2 R140Q.
Consider `COC(=O)N1CCC(Nc2nc(Nc3ccnc(C(F)(F)F)c3)nc(-c3cccc(C(F)(F)F)n3)n2)CC1` [Compound 577, 4-[4-(6-Trifluoromethyl-pyridin-2-yl)-6-(2-trifluoromethyl-pyridin-4-ylamino)-[1,3,5]triazin-2-ylamino]-piperidine-1-carboxylic acid methyl ester], for which the IC50 is 100 to 1000 nM on IDH2 R172K; under 100 nM in assay [1] (Homo sapiens, U-87 MG); 1000 to 10000 nM at IDH2 R140Q.
With `CC(C)Nc1nc(Nc2ccnc(C3(C)CC3)c2)nc(-c2cccc(C(F)(F)F)n2)n1` [Compound 581, N-Isopropyl-N′-[2-(1-methyl-cyclopropyl)-pyridin-4-yl]-6-(6-trifluoromethyl-pyridin-2-yl)-[1,3,5]triazine-2,4-diamine], the IC50 at IDH2 R172K is under 100 nM; in assay [1] (Homo sapiens, U-87 MG) it was under 100 nM; at IDH2 R140Q, 100 to 1000 nM.
